The source made the active and inactive calls.
How the values were obtained:
[1] = molecular target: Voltage-gated N-type calcium channel alpha-1B subunit/Amyloid beta A4 precursor protein-binding family A member 1 (Homo sapiens, UniProt Q00975+Q02410); type: protein assay
Beta-galactosidase = Beta-galactosidase (Escherichia coli, UniProt Q8VNN2); experiment: detection-enzyme interference by beta-gal modulators – biochemical, E. coli enzyme, set 3, artefact control for CCR6 antagonist project, dose response (AID 504712); type: functional
Sequence of Beta-galactosidase (Q8VNN2 whole entry): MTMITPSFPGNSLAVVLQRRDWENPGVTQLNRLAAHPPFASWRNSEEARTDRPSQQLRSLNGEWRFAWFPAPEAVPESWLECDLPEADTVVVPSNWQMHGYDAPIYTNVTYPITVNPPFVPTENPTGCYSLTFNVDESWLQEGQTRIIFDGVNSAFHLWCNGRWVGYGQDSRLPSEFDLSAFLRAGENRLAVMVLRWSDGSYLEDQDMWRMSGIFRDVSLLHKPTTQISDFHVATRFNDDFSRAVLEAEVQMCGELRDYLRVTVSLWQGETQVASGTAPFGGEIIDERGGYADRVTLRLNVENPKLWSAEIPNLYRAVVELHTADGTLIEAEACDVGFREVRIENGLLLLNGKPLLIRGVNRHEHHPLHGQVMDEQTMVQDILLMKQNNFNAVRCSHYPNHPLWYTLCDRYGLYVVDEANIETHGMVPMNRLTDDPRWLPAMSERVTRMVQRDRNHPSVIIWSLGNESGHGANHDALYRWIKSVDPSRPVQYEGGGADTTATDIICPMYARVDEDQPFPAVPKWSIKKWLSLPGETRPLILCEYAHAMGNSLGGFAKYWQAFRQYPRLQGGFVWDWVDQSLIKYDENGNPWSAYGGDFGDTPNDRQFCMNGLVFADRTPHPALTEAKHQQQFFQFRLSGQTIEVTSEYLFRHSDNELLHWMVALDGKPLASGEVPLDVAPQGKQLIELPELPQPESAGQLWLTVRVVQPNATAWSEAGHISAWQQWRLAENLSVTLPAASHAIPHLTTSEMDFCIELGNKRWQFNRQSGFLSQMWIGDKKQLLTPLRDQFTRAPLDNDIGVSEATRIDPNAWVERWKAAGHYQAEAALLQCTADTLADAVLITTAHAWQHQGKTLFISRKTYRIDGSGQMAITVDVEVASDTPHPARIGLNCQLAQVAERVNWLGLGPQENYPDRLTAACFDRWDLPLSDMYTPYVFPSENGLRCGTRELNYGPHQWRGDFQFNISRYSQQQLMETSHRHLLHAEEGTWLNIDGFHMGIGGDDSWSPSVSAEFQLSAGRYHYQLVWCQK

[2] = molecular target: Voltage-gated inwardly rectifying potassium channel KCNH2 (Homo sapiens, UniProt Q12809); experiment: concentration-dependent hERG rescue from blockers – cell-based, thallium flux, dose response (AID 2121); type: ADME
[3] = activation of miR-122 Renilla sensor silencing – cell-based, Huh7 psiCHECK-miR122, Renilla luciferase, cherry-picked, dose response (AID 651956); type: functional;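 note: huh7 hepatoma cells stably carrying a psiCHECK-2 miR-122 sensor plasmid; renilla luciferase signal reporting endogenous miR-122 activity after 48 h compound exposure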
[4] = general mammalian cell viability loss – activator set, cherry-pick, cytotoxicity control for miR-122 modulator project, dose response (AID 720690); type: functional, cell-based;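 note: HEK293T human cells scored for general mammalian cytotoxicity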

Sequence of Voltage-gated N-type calcium channel alpha-1B subunit/Amyloid beta A4 precursor protein-binding family A member 1 (Q00975 whole entry): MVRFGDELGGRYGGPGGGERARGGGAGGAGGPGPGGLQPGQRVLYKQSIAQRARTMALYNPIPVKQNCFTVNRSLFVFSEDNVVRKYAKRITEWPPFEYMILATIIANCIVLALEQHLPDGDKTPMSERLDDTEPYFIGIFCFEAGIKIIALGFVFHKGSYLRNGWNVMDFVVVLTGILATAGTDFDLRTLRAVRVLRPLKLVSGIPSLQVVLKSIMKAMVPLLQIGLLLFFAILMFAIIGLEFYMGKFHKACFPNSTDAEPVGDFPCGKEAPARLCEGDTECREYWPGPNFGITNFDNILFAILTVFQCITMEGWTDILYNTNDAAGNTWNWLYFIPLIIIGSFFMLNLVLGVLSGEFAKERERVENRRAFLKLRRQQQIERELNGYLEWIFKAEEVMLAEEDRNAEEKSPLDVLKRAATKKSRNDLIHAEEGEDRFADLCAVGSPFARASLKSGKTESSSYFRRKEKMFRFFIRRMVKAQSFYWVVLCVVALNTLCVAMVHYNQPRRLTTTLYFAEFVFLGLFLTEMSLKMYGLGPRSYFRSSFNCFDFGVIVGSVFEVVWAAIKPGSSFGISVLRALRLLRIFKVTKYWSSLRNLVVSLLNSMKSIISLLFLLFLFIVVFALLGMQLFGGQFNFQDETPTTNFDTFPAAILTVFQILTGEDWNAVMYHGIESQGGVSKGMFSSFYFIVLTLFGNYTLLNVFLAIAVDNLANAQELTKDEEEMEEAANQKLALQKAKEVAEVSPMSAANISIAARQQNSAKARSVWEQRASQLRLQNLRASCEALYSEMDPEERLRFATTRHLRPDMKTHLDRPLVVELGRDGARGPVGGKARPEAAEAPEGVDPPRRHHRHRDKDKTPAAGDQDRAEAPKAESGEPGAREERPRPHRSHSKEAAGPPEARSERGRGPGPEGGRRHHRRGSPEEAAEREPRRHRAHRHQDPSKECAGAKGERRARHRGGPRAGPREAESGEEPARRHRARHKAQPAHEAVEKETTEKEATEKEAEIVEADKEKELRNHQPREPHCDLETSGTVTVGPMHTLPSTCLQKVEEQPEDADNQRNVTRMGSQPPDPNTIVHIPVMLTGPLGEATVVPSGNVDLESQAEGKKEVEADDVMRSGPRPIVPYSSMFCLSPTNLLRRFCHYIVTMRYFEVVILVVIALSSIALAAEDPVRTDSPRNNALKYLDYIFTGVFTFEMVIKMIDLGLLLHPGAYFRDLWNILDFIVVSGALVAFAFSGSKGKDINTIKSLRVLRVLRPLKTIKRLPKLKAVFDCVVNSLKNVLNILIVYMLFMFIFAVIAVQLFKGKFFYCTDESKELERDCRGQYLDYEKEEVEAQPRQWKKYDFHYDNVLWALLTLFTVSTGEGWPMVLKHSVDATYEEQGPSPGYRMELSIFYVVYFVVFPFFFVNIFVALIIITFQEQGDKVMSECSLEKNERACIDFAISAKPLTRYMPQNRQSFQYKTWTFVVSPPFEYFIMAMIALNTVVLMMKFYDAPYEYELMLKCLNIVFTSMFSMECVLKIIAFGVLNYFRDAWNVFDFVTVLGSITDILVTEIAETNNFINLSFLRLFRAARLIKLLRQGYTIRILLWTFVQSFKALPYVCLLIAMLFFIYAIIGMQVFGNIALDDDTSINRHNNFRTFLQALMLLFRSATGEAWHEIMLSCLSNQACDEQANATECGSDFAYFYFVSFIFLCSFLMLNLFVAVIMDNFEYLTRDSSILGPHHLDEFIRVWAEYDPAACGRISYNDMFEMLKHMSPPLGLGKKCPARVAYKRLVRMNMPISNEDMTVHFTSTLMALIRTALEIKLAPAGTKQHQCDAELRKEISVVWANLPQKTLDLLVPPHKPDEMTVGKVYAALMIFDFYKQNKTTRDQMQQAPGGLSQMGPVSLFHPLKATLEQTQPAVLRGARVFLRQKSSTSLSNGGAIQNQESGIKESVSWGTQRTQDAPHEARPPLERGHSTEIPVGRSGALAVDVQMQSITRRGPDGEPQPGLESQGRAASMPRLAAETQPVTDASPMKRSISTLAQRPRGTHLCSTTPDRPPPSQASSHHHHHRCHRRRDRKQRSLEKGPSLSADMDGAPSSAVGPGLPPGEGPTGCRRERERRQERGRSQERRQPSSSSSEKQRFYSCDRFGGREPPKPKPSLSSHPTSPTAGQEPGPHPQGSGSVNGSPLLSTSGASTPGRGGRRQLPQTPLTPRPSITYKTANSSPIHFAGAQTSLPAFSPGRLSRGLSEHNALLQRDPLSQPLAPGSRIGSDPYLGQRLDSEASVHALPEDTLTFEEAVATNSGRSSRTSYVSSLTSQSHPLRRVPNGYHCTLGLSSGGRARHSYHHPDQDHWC
Sequence of Voltage-gated N-type calcium channel alpha-1B subunit/Amyloid beta A4 precursor protein-binding family A member 1 (Q02410 whole entry): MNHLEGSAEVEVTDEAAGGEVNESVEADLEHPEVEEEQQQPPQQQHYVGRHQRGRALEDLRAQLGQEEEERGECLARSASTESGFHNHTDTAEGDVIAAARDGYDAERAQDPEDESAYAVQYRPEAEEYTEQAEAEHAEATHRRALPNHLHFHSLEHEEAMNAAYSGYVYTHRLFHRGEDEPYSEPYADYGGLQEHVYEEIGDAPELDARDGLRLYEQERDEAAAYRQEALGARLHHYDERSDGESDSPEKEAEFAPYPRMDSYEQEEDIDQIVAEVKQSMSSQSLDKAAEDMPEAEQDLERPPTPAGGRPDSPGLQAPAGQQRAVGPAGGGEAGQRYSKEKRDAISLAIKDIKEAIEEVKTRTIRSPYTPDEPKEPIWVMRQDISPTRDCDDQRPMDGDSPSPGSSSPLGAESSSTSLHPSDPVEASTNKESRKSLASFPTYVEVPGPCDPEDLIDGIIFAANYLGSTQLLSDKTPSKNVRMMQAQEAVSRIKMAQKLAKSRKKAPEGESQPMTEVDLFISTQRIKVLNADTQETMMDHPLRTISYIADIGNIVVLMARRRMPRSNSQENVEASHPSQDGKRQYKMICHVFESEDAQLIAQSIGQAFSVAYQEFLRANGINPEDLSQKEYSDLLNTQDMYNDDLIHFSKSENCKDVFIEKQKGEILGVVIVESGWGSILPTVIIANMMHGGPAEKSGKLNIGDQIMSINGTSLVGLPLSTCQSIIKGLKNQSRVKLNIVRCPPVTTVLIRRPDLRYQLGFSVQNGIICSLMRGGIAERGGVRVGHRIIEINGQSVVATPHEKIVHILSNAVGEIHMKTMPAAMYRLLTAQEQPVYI

Compound: COc1cc(-c2ccc(Nc3ccccc3C(=O)O)c(OC)c2)ccc1Nc1ccccc1C(=O)O
- IC50 [1]: 30 µM (active)

Compound: COC(CNC(=O)c1ccc2c3c(onc13)-c1ccccc1C2=O)OC
- IC50 (Beta-galactosidase): > 66.6 µM (inactive)

Compound: Nc1ccc2c(c1)C(=O)C(=O)c1ccccc1-2
- EC50 [2]: 1.38 µM (active)
- AC50 [3]: 10.7 µM (active)
- AC50 [4]: 6.54 µM (active)
